According to the NIST ThermoML archive (doi:10.1016/j.jct.2003.09.013):
Several values for one entry are separate records, joined by “and”; a condition that tells them apart may be missing. Equal entries are not always repeated.

Assay: mn = molality of the nth substance listed, in mol/kg
Conditions: 350 kPa, Liquid; for molar volume: Vibrating tube method; for apparent molar heat capacity: Extra sensitive DSC

O=[N+]([O-])[O-].O=[N+]([O-])[O-].[Pb+2] [lead(II) nitrate] + O
Conditions | apparent molar heat capacity [J/K/mol] | apparent molar volume | molar volume
278.15 K, m1 = 0.01959 | – | 3.11e-05 m3/mol | 3.11e-05 m3/mol
278.15 K, m1 = 0.01983 | – | 3.8e-05 m3/mol | 3.8e-05 m3/mol
278.15 K, m1 = 0.02999 | – | 3.7e-05 m3/mol and 3.36e-05 m3/mol | 3.7e-05 m3/mol and 3.36e-05 m3/mol
278.15 K, m1 = 0.04862 | – | 3.8e-05 m3/mol | 3.8e-05 m3/mol
278.15 K, m1 = 0.05035 | – | 3.73e-05 m3/mol | 3.73e-05 m3/mol
278.15 K, m1 = 0.1004 | – | 3.52e-05 m3/mol and 4.01e-05 m3/mol | 4.01e-05 m3/mol and 3.52e-05 m3/mol
278.15 K, m1 = 0.2435 | – | 3.781e-05 m3/mol | 3.781e-05 m3/mol
278.15 K, m1 = 0.392 | – | 3.95e-05 m3/mol | 3.95e-05 m3/mol
278.15 K, m1 = 0.4885 | – | 4.08e-05 m3/mol | 4.08e-05 m3/mol
283.15 K, m1 = 0.01959 | – | 3.4e-05 m3/mol | 3.4e-05 m3/mol
283.15 K, m1 = 0.01983 | – | 3.8e-05 m3/mol | 3.8e-05 m3/mol
283.15 K, m1 = 0.02999 | – | 3.9e-05 m3/mol and 3.62e-05 m3/mol | 3.9e-05 m3/mol and 3.62e-05 m3/mol
283.15 K, m1 = 0.04862 | – | 3.9e-05 m3/mol | 3.9e-05 m3/mol
283.15 K, m1 = 0.05035 | – | 3.93e-05 m3/mol | 3.93e-05 m3/mol
283.15 K, m1 = 0.1004 | – | 4.14e-05 m3/mol and 3.73e-05 m3/mol | 4.14e-05 m3/mol and 3.73e-05 m3/mol
283.15 K, m1 = 0.2435 | – | 3.976e-05 m3/mol | 3.976e-05 m3/mol
283.15 K, m1 = 0.392 | – | 4.126e-05 m3/mol | 4.126e-05 m3/mol
283.15 K, m1 = 0.4885 | 4.5 | 4.243e-05 m3/mol | 4.243e-05 m3/mol
288.15 K, m1 = 0.01959 | – | 3.508e-05 m3/mol | 3.508e-05 m3/mol
288.15 K, m1 = 0.01983 | – | 3.8e-05 m3/mol | 3.8e-05 m3/mol
288.15 K, m1 = 0.02999 | – | 3.9e-05 m3/mol and 3.71e-05 m3/mol | 3.9e-05 m3/mol and 3.71e-05 m3/mol
288.15 K, m1 = 0.04862 | – | 3.96e-05 m3/mol | 3.96e-05 m3/mol
288.15 K, m1 = 0.05035 | – | 4.05e-05 m3/mol | 4.05e-05 m3/mol
288.15 K, m1 = 0.1004 | – | 4.12e-05 m3/mol and 3.851e-05 m3/mol | 4.12e-05 m3/mol and 3.851e-05 m3/mol
288.15 K, m1 = 0.2435 | – | 4.073e-05 m3/mol | 4.073e-05 m3/mol
288.15 K, m1 = 0.392 | – | 4.246e-05 m3/mol | 4.246e-05 m3/mol
288.15 K, m1 = 0.4885 | 12.8 | 4.323e-05 m3/mol | 4.323e-05 m3/mol
293.15 K, m1 = 0.4885 | 18.6 | – | –
298.15 K, m1 = 0.01959 | – | 3.86e-05 m3/mol | 3.86e-05 m3/mol
298.15 K, m1 = 0.01983 | – | 4.1e-05 m3/mol | 4.1e-05 m3/mol
298.15 K, m1 = 0.02999 | – | 4.19e-05 m3/mol and 3.835e-05 m3/mol | 4.19e-05 m3/mol and 3.835e-05 m3/mol
298.15 K, m1 = 0.04862 | – | 4.22e-05 m3/mol | 4.22e-05 m3/mol
298.15 K, m1 = 0.05035 | – | 4.377e-05 m3/mol | 4.377e-05 m3/mol
298.15 K, m1 = 0.1004 | – | 4.33e-05 m3/mol and 4.134e-05 m3/mol | 4.33e-05 m3/mol and 4.134e-05 m3/mol
298.15 K, m1 = 0.2435 | – | 4.368e-05 m3/mol | 4.368e-05 m3/mol
298.15 K, m1 = 0.392 | 2.9 | 4.54e-05 m3/mol | 4.54e-05 m3/mol
298.15 K, m1 = 0.4885 | 22.3 | 4.567e-05 m3/mol | 4.567e-05 m3/mol
303.15 K, m1 = 0.392 | 6 | – | –
303.15 K, m1 = 0.4885 | 24.9 | – | –
308.15 K, m1 = 0.01959 | – | 4.027e-05 m3/mol | 4.027e-05 m3/mol
308.15 K, m1 = 0.01983 | – | 4.04e-05 m3/mol | 4.04e-05 m3/mol
308.15 K, m1 = 0.02999 | – | 4.2e-05 m3/mol and 3.7e-05 m3/mol | 4.2e-05 m3/mol and 3.7e-05 m3/mol
308.15 K, m1 = 0.04862 | – | 4.27e-05 m3/mol | 4.27e-05 m3/mol
308.15 K, m1 = 0.05035 | – | 4.631e-05 m3/mol | 4.631e-05 m3/mol
308.15 K, m1 = 0.1004 | – | 4.39e-05 m3/mol and 4.262e-05 m3/mol | 4.39e-05 m3/mol and 4.262e-05 m3/mol
308.15 K, m1 = 0.2435 | – | 4.56e-05 m3/mol | 4.56e-05 m3/mol
308.15 K, m1 = 0.392 | 8.2 | 4.698e-05 m3/mol | 4.698e-05 m3/mol
308.15 K, m1 = 0.4885 | 26.6 | 4.739e-05 m3/mol | 4.739e-05 m3/mol
313.15 K, m1 = 0.392 | 9.6 | – | –
313.15 K, m1 = 0.4885 | 27.7 | – | –
318.15 K, m1 = 0.01959 | – | 4.413e-05 m3/mol | 4.413e-05 m3/mol
318.15 K, m1 = 0.01983 | – | 4.13e-05 m3/mol | 4.13e-05 m3/mol
318.15 K, m1 = 0.02999 | – | 4.23e-05 m3/mol and 3.71e-05 m3/mol | 4.23e-05 m3/mol and 3.71e-05 m3/mol
318.15 K, m1 = 0.04862 | – | 4.32e-05 m3/mol | 4.32e-05 m3/mol
318.15 K, m1 = 0.05035 | – | 4.763e-05 m3/mol | 4.763e-05 m3/mol
318.15 K, m1 = 0.1004 | – | 4.49e-05 m3/mol and 4.36e-05 m3/mol | 4.49e-05 m3/mol and 4.36e-05 m3/mol
318.15 K, m1 = 0.2435 | – | 4.709e-05 m3/mol | 4.709e-05 m3/mol
318.15 K, m1 = 0.392 | 10.3 | 4.824e-05 m3/mol | 4.824e-05 m3/mol
318.15 K, m1 = 0.4885 | 27.8 | 4.881e-05 m3/mol | 4.881e-05 m3/mol
323.15 K, m1 = 0.392 | 10.5 | – | –
323.15 K, m1 = 0.4885 | 27.8 | – | –
328.15 K, m1 = 0.01959 | – | 4.522e-05 m3/mol | 4.522e-05 m3/mol
328.15 K, m1 = 0.01983 | – | 4.163e-05 m3/mol | 4.163e-05 m3/mol
328.15 K, m1 = 0.02999 | – | 4.215e-05 m3/mol and 3.58e-05 m3/mol | 4.215e-05 m3/mol and 3.58e-05 m3/mol
328.15 K, m1 = 0.04862 | – | 4.365e-05 m3/mol | 4.365e-05 m3/mol
328.15 K, m1 = 0.05035 | – | 4.871e-05 m3/mol | 4.871e-05 m3/mol
328.15 K, m1 = 0.1004 | – | 4.523e-05 m3/mol and 4.39e-05 m3/mol | 4.523e-05 m3/mol and 4.39e-05 m3/mol
328.15 K, m1 = 0.2435 | – | 4.806e-05 m3/mol | 4.806e-05 m3/mol
328.15 K, m1 = 0.392 | 10.3 | 4.911e-05 m3/mol | 4.911e-05 m3/mol
328.15 K, m1 = 0.4885 | 27.3 | 4.978e-05 m3/mol | 4.978e-05 m3/mol
333.15 K, m1 = 0.392 | 10 | – | –
333.15 K, m1 = 0.4885 | 26.8 | – | –
338.15 K, m1 = 0.01959 | – | 4.5e-05 m3/mol | 4.5e-05 m3/mol
338.15 K, m1 = 0.01983 | – | 4.114e-05 m3/mol | 4.114e-05 m3/mol
338.15 K, m1 = 0.02999 | – | 4.265e-05 m3/mol and 3.58e-05 m3/mol | 4.265e-05 m3/mol and 3.58e-05 m3/mol
338.15 K, m1 = 0.04862 | – | 4.42e-05 m3/mol | 4.42e-05 m3/mol
338.15 K, m1 = 0.05035 | – | 4.942e-05 m3/mol | 4.942e-05 m3/mol
338.15 K, m1 = 0.1004 | – | 4.599e-05 m3/mol and 4.45e-05 m3/mol | 4.599e-05 m3/mol and 4.45e-05 m3/mol
338.15 K, m1 = 0.2435 | – | 4.89e-05 m3/mol | 4.89e-05 m3/mol
338.15 K, m1 = 0.392 | 9.1 | 4.981e-05 m3/mol | 4.981e-05 m3/mol
338.15 K, m1 = 0.4885 | 25.9 | 5.059e-05 m3/mol | 5.059e-05 m3/mol
343.15 K, m1 = 0.392 | 8 | – | –
343.15 K, m1 = 0.4885 | 24.7 | – | –
348.15 K, m1 = 0.01959 | – | 4.33e-05 m3/mol | 4.33e-05 m3/mol
348.15 K, m1 = 0.02999 | – | 3.57e-05 m3/mol | 3.57e-05 m3/mol
348.15 K, m1 = 0.05035 | – | 4.93e-05 m3/mol | 4.93e-05 m3/mol
348.15 K, m1 = 0.1004 | – | 4.662e-05 m3/mol and 4.47e-05 m3/mol | 4.662e-05 m3/mol and 4.47e-05 m3/mol
348.15 K, m1 = 0.2435 | – | 4.92e-05 m3/mol | 4.92e-05 m3/mol
348.15 K, m1 = 0.392 | 6.7 | 5.034e-05 m3/mol | 5.034e-05 m3/mol
348.15 K, m1 = 0.4885 | 23.3 | 5.112e-05 m3/mol | 5.112e-05 m3/mol
353.15 K, m1 = 0.392 | 5.2 | – | –
353.15 K, m1 = 0.4885 | 22 | – | –
358.15 K, m1 = 0.01959 | – | 4.397e-05 m3/mol | 4.397e-05 m3/mol
358.15 K, m1 = 0.02999 | – | 3.55e-05 m3/mol | 3.55e-05 m3/mol
358.15 K, m1 = 0.05035 | – | 4.866e-05 m3/mol | 4.866e-05 m3/mol
358.15 K, m1 = 0.1004 | – | 4.48e-05 m3/mol and 4.513e-05 m3/mol | 4.48e-05 m3/mol and 4.513e-05 m3/mol
358.15 K, m1 = 0.2435 | – | 4.929e-05 m3/mol | 4.929e-05 m3/mol
358.15 K, m1 = 0.392 | 3.8 | 5.016e-05 m3/mol | 5.016e-05 m3/mol
358.15 K, m1 = 0.4885 | 20.5 | 5.11e-05 m3/mol | 5.11e-05 m3/mol
363.15 K, m1 = 0.392 | 2.1 | – | –
363.15 K, m1 = 0.4885 | 18.8 | – | –
368.15 K, m1 = 0.01959 | – | 4.451e-05 m3/mol | 4.451e-05 m3/mol
368.15 K, m1 = 0.02999 | – | 3.49e-05 m3/mol | 3.49e-05 m3/mol
368.15 K, m1 = 0.05035 | – | 4.751e-05 m3/mol | 4.751e-05 m3/mol
368.15 K, m1 = 0.1004 | – | 4.02e-05 m3/mol and 4.44e-05 m3/mol | 4.02e-05 m3/mol and 4.44e-05 m3/mol
368.15 K, m1 = 0.2435 | – | 4.902e-05 m3/mol | 4.902e-05 m3/mol
368.15 K, m1 = 0.392 | – | 4.883e-05 m3/mol | 4.883e-05 m3/mol
368.15 K, m1 = 0.4885 | 16.9 | 5.055e-05 m3/mol | 5.055e-05 m3/mol
373.15 K, m1 = 0.4885 | 14.8 | – | –
378.15 K, m1 = 0.4885 | 12.1 | – | –
383.15 K, m1 = 0.4885 | 9.5 | – | –
388.15 K, m1 = 0.4885 | 6.8 | – | –
393.15 K, m1 = 0.4885 | 3.2 | – | –
